# Test results reported in patent publication US12653191B2, “Active compound combinations” (Bayer Aktiengesellschaft, priority 2020, dated 2026).
# Like-named read-outs stand apart in the source and are kept apart here.
# Key:
# Alternaria alternate = experiment: in vitro-Test with fungal microorganisms, Method A (tables A1-A12); assay type: cell-based, Alternaria alternata; conditions: Alternaria, applied alone, read-out: Efficacy %
# Summary of the method: (§1)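 Growth inhibition was measured photometrically at 620 nm 3–5 days after application, with 100% efficacy meaning no growth and 0% meaning growth equal to the untreated control. Fungal spore or mycelium suspension in potato dextrose broth was added onto solvent-evaporated compound and incubated at 20° C and 85% relative humidity.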
# Alternaria alternata = experiment: in vitro-Test with fungal microorganisms, Method B (tables A13-A22); assay type: cell-based; conditions: Alternaria alternata, read-out: Efficacy
# Summary of the method: (§2)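 Efficacy scale: 0% means growth equal to the untreated control, 100% means none detected. Compounds are dried from methanol with emulsifier before adding inoculated growth medium; incubation at 20° C., 85% relative humidity for 3 to 7 days precedes photometric inhibition readout.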
# Botrytis cinerea [1] = experiment: in vitro-Test with fungal microorganisms, Method A (tables B1-B14); assay type: cell-based; conditions: Botrytis cinerea
# Summary of the method: as §1
# Botrytis cinerea [2] = experiment: in vitro-Test with fungal microorganisms, Method B (tables B15-B18); assay type: cell-based; conditions: Botrytis cinerea, read-out: Efficacy %
# Summary of the method: as §2
# Cercospora beticola = experiment: in vitro-Test with fungal microorganisms, Method A (tables C1-C10); assay type: cell-based; conditions: for inhibition of growth at 0.8 ppm / inhibition of growth at 4 ppm: Cercospora beticola, read-out: Efficacy %
# Summary of the method: as §1
# [3] = test system: Colletotrichum lindemuthianum; experiment: in vitro-Test with fungal microorganisms, Method A (tables D1-D8); assay type: cell-based; conditions: Colletotrichum lindemuthianum, read-out: Efficacy %
# Summary of the method: as §1
# Cordana musae [4] = experiment: in vitro-Test with fungal microorganisms, Method A (tables E1-E8); assay type: cell-based; conditions: Neocordana musae, read-out: Efficacy %
# Summary of the method: as §1
# Cordana musae [5] = experiment: in vitro-Test with fungal microorganisms, Method B (tables E9-E16); assay type: cell-based; conditions: Neocordana musae, single active, 0.8 ppm; read-out: Efficacy
# Summary of the method: as §2
# Diaporthe citri = experiment: in vitro-Test with fungal microorganisms, Method A (tables F1-F11); assay type: cell-based; conditions: Diaporthe citri, read-out: Efficacy
# Summary of the method: as §1
# Fusarium culmorum = experiment: in vitro-Test with fungal microorganisms, Method B (tables G5-G15); assay type: cell-based; conditions: Fusarium culmorum, read-out: Efficacy
# Summary of the method: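 Cpd in MeOH + alkylaryl-polyglycol-ether, solvent evaporated; liquid medium + fungal spores/mycelium added; OD600 read; 3–7 d, 20° C., 85% RH; growth inhibition by photometry, % efficacy vs untreated ctrl.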
# Parastagonospora nodorum = experiment: in vitro-Test with fungal microorganisms, Method A (tables H1-H4); assay type: cell-based
# Procedure: Example: In Vitro-Test with Fungal Microorganisms
# Wells of 96-well microtiter plates are filled with 10 μl of a preparation of test compound or compound combination in methanol+emulsifier alkylaryl-polyglycol-ether. Thereafter, the solvent is evaporated in a hood. At the next step, 100 μl of liquid potato dextrose medium is given into each well, that has been amended with an appropriate concentration of spores or mycelium suspension of the test fungus.
# With the aid of a photometer, the extinction in all wells is measured at the wavelength of 620 nm.
# The microtiter plates are incubated at 20° C. and 85% relative humidity. The inhibition of growth is determined again photometrically 3-5 days after the application. Efficacy is calculated in relation to the untreated control, 0% efficacy means fungal growth as high as in untreated control while 100% efficacy means no fungal growth is measured.
# The data in tables A1 to A12, B1 to B14, C1 to C10, D1 to D8, E1 to E8, F1 to F11, G1 to G4, H1 to H4 and I1 to I5 were collected according to Method A. The data in tables A13 to A22, B15 to B18, C11 to C20, E9 to E16, F12 to F15, G5 to G15, H5 to H8, I6 to I11 and J1 to J11 were collected according to Method B.
# [6] = test system: Ustilago segetum var. avenae; experiment: in vitro-Test with fungal microorganisms, Method B (tables I6-I11); assay type: cell-based; conditions: read-out: Efficacy %
# Summary of the method: as §2
# Colletotrichum coccodes = experiment: in vitro-Test with fungal microorganisms, Method B (tables J1-J11); assay type: cell-based; conditions: Colletotrichum coccodes, single active compound at 0.8 ppm; read-out: Efficacy %
# Summary of the method: as §2
compound,measurement,setting,value
"Cc1cc(C)nc(Nc2ccccc2)n1 [(7.005) pyrimethanil, pyrimethanil]",inhibition of growth at 4 ppm,Alternaria alternate; 4 ppm,93%
same,inhibition of growth at 20 ppm,Alternaria alternate; 20 ppm,82%
same,inhibition of growth at 0.8 ppm,Alternaria alternata,96%
same,inhibition of growth at 0.8 ppm,Alternaria alternata; single compound,96%
same,inhibition of growth at 20 ppm,"Alternaria alternata; single compound, 20 ppm",100%
same,inhibition of growth at 4 ppm,Botrytis cinerea [1]; read-out: Efficacy,100%
same,inhibition of growth at 20 ppm,Botrytis cinerea [1]; read-out: Efficacy,100%
same,inhibition of growth at 0.8 ppm,"Botrytis cinerea [1]; alone, 0.8 ppm, read-out: Efficacy %",100%
same,inhibition of growth at 4 ppm,"Botrytis cinerea [1]; alone, read-out: Efficacy %",100%
same,inhibition of growth at 20 ppm,"Botrytis cinerea [1]; alone, read-out: Efficacy %",100%
same,inhibition of growth at 0.8 ppm,Botrytis cinerea [2]; 0.8 ppm alone,89%
same,inhibition of growth at 4 ppm,Botrytis cinerea [2]; 4 ppm alone,95%
same,Efficacy %,Cercospora beticola; 20.0 ppm,100%
same,inhibition of growth at 0.8 ppm,Cercospora beticola; 0.8 ppm alone,10%
same,inhibition of growth at 0.8 ppm,Cercospora beticola; 0.8 ppm,20%
same,inhibition of growth at 4 ppm,Cercospora beticola; 4.0 ppm alone,98%
same,inhibition of growth at 4 ppm,Cercospora beticola; 4.0 ppm,100%
same,inhibition of growth at 0.8 ppm,[3]; single active at 0.8 ppm,1%
same,inhibition of growth at 4 ppm,[3]; single active at 4.0 ppm,0%
same,inhibition of growth at 20 ppm,[3]; single active at 20.0 ppm,16%
same,inhibition of growth at 4 ppm,Cordana musae [4]; mixing partner alone,24%
same,inhibition of growth at 20 ppm,Cordana musae [4]; mixing partner alone,4%
same,inhibition of growth at 4 ppm,Cordana musae [4]; single substance,0%
same,inhibition of growth at 20 ppm,Cordana musae [4]; single substance,24%
same,inhibition of growth at 0.8 ppm,Cordana musae [5],40%
same,inhibition of growth at 4 ppm,Diaporthe citri; applied alone,97%
same,inhibition of growth at 20 ppm,Diaporthe citri; applied alone,100%
same,inhibition of growth at 0.8 ppm,"Diaporthe citri; single active, 0.8 ppm",0%
same,inhibition of growth at 4 ppm,Diaporthe citri; single active,97%
same,inhibition of growth at 20 ppm,Diaporthe citri; single active,100%
same,inhibition of growth at 0.8 ppm,Fusarium culmorum; alone,5%
same,inhibition of growth at 0.8 ppm,Fusarium culmorum; single active compound,8%
same,inhibition of growth at 4 ppm,"Fusarium culmorum; single active compound, 4 ppm",16%
same,inhibition of growth at 20 ppm,"Fusarium culmorum; single active compound, 20 ppm",24%
same,Efficacy,Parastagonospora nodorum; 0.8 ppm,100%
same,Efficacy,Parastagonospora nodorum; 20.0 ppm,100%
same,inhibition of growth at 0.8 ppm,[6]; 0.8 ppm,18%
same,inhibition of growth at 4 ppm,[6]; 4 ppm,42%
same,inhibition of growth at 20 ppm,[6]; 20 ppm,49%
same,inhibition of growth at 0.8 ppm,Colletotrichum coccodes,25%
